Source: ChEMBL document CHEMBL5252531, “2015 Philip S. Portoghese Medicinal Chemistry Lectureship. Curing Hepatitis C Virus Infection with Direct-Acting Antiviral Agents: The Arc of a Medicinal Chemistry Triumph” (J Med Chem, 2016)
pEC50, pIC50: −log10 of the molar value. In brackets after ≈: the same amount, converted by molar mass.

How the values were obtained:
[1] = tested on: Hepatitis C virus; experiment: Antiviral activity against HCV GT1a-genotype assessed as inhibition of viral replication; format: functional, organism-based, Hepacivirus hominis
[2] = tested on: Hepatitis C virus; experiment: Antiviral activity against HCV GT1b-genotype assessed as inhibition of viral replication measured after 24 hrs; format: functional, organism-based, Hepacivirus hominis
[3] = tested on: Hepatitis C virus; experiment: Antiviral activity against HCV GT1b-genotype assessed as viral growth inhibition measured after 24 hrs; format: functional, organism-based, Hepacivirus hominis; conditions: for pEC50: Hepatitis C virus, GT1b-genotype, 24 h
[4] = target: T1, Nuclear receptor subfamily 1 group I member 2 (Homo sapiens, UniProt O75469); experiment: Inhibition of PXR (unknown origin)
T1 sequence (O75469 whole entry): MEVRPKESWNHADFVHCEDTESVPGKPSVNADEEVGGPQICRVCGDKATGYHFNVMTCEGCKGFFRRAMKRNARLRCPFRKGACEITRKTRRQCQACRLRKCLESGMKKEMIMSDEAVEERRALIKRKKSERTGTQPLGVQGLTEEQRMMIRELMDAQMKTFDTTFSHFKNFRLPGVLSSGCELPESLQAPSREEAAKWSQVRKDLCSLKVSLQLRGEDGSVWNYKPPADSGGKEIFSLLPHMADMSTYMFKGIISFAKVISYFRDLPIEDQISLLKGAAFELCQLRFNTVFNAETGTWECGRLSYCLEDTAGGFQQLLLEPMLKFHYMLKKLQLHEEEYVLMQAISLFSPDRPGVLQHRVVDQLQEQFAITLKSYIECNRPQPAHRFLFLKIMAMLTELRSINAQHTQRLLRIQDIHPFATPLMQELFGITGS

[5] = Solubility in water at pH 7; format: physicochemical
[6] = Solubility of the compound; format: physicochemical
[7] = tested on: Pregnane X receptor (Homo sapiens); experiment: PXR activation
[8] = Oral bioavailability in Sprague-Dawley rat at 10 mg/kg measured after 4 hrs; format: ADME, organism-based; conditions: in vivo
[9] = tested on: HeLa; experiment: Cytotoxicity against human HeLa cells assessed as reduction in cell viability measured after 72 hrs by Alamar blue assay; format: functional
[10] = tested on: Bovine viral diarrhea virus 1; experiment: Antiviral activity against Bovine viral diarrhea virus 1; format: functional, organism-based; conditions: Bovine viral diarrhea virus isolates and strains
[11] = tested on: Human immunodeficiency virus 1; experiment: Antiviral activity against HIV-1; format: functional, organism-based
[12] = tested on: Bovine viral diarrhea virus 1; experiment: Antiviral activity against Bovine viral diarrhea virus 1 infected in MDBK cells assessed as reduction in viral replication; format: functional, organism-based; conditions: Bovine viral diarrhea virus isolates and strains
[13] = Cytotoxicity against African green monkey Vero cells assessed as reduction in cell viability […] after 72 hrs by alamar blue assay; format: toxicity, cell-based; conditions: chlorocebus sabaeus
[14] = tested on: Respiratory syncytial virus; experiment: Antiviral activity against RSV; format: functional, organism-based; conditions: human respiratory syncytial virus
[15] = tested on: Huh-7; experiment: Cytotoxicity against human Huh-7 cells assessed as reduction in cell viability […] after 72 hrs by alamar blue assay; format: functional
[16] = Cytotoxicity against human HEK293 cells assessed as reduction in cell viability […] after 72 hrs by alamar blue assay; format: toxicity, cell-based
[17] = Cytotoxicity against human MRC5 cells assessed as reduction in cell viability measured after 72 hrs by alamar blue assay; format: toxicity, cell-based
[18] = Cytotoxicity against human MT2 cells assessed as cell viability measured after 72 hrs by MTT assay; format: toxicity, cell-based
[19] = tested on: Human rhinovirus sp.; experiment: Antiviral activity against HRV; format: functional, organism-based
[20] = tested on: Hepatitis C virus; experiment: Antiviral activity against HCV GT1b-genotype assessed as inhibition of viral replication; format: functional, organism-based, Hepacivirus hominis
[21] = tested on: Hepatitis C virus; experiment: Antiviral activity against Hepatitis C virus infected RNA assessed as reduction in viral replication at 200 mg, po BID measured for 3 days; format: functional, Hepacivirus hominis; conditions: time 3 day
[22] = Drug concentration in cynomolgus monkey liver at 10 mg/kg, po measured after 24 hrs by LC-MS/MS analysis; format: ADME, organism-based, Macaca fascicularis; conditions: read-out: Ct
[23] = tested on: Hepatitis C virus; experiment: Antiviral activity against HCV genotype 2a; format: functional, organism-based, Hepacivirus hominis
[24] = AUC in Beagle dog at 3 mg/kg, po measured after 24 hrs by LC-MS/MS analysis; format: ADME, organism-based, Canis lupus familiaris; parameters: dose 3 mg/kg, time 24 hrs, route po; conditions: in vivo
[25] = AUC in Sprague-Dawley rat at 15 mg/kg, po measured after 24 hrs by LC-MS/MS analysis; format: ADME, organism-based; parameters: dose 15 mg/kg, time 24 hrs, route po; conditions: in vivo
[26] = tested on: Hepatitis C virus; experiment: Antiviral activity against HCV genotype 1b; format: functional, organism-based, Hepacivirus hominis
[27] = tested on: Hepatitis C virus; experiment: Antiviral activity against Hepatitis C virus infected RNA assessed as reduction in viral replication at 400 mg, po BID measured for 3 days; format: functional, Hepacivirus hominis; conditions: time 3 day
[28] = in vivo; conditions: beagle, dog, iv, 1 mg/kg
Description: Half life in Beagle dog at 1 mg/kg, iv measured after 24 hrs by HPLC method

[29] = tested on: Hepatitis C virus; experiment: Inhibition of HCV genotype 1b; format: functional, organism-based, Hepacivirus hominis
[30] = AUC in cynomolgus monkey at 3mg/kg, po measured after 24 hrs by LC-MS/MS analysis; format: ADME, organism-based, Macaca fascicularis; parameters: time 24 hrs, route po; conditions: in vivo
[31] = tested on: Hepatitis C virus; experiment: Inhibition of HCV genotype 2b; format: functional, organism-based, Hepacivirus hominis
[32] = tested on: Hepatitis C virus; experiment: Inhibition of HCV genotype 6a; format: functional, organism-based, Hepacivirus hominis
[33] = tested on: Hepatitis C virus; experiment: Antiviral activity against HCV genotype 4a; format: functional, organism-based, Hepacivirus hominis
[34] = in vivo; conditions: FVB, mouse, iv, 2 mg/kg
Description: Half life in FVB mouse at 2 mg/kg, iv measured after 24 hrs by HPLC method

[35] = in vivo; conditions: cynomolgus monkey, po, 3 mg/kg
[36] = tested on: Hepatitis C virus; experiment: Antiviral activity against Hepatitis C virus infected RNA assessed as reduction in viral replication at 600 mg, po BID measured for 3 days; format: functional, Hepacivirus hominis; conditions: time 3 day
[37] = in vivo; conditions: male, Sprague-Dawley, rat, po, 15 mg/kg
[38] = Drug concentration in Sprague-Dawley rat plasma at 15 mg/kg, po measured after 24 hrs by LC-MS/MS analysis; format: ADME, organism-based
[39] = tested on: Hepatitis C virus; experiment: Inhibition of HCV genotype 5a; format: functional, organism-based, Hepacivirus hominis
[40] = AUC in FVB mouse at 5 mg/kg, po measured after 24 hrs by LC-MS/MS analysis; format: ADME, organism-based; parameters: dose 5 mg/kg, time 24 hrs, route po; conditions: in vivo
[41] = in vivo; conditions: FVB, mouse, po, 5 mg/kg
[42] = Drug concentration in Sprague-Dawley liver at 15 mg/kg, po measured after 24 hrs by LC-MS/MS analysis; format: ADME, organism-based; conditions: rat, read-out: Ct
[43] = tested on: Hepatitis C virus; experiment: Antiviral activity against HCV genotype 3a; format: functional, organism-based, Hepacivirus hominis
[44] = Drug concentration in Beagle dog plasma at 6 mg/kg, po measured after 24 hrs by LC-MS/MS analysis; format: ADME, organism-based, Canis lupus familiaris
[45] = tested on: Hepatitis C virus; experiment: Inhibition of HCV genotype 1a; format: functional, organism-based, Hepacivirus hominis
[46] = Drug concentration in FVB mouse liver at 5 mg/kg, po measured after 24 hrs by LC-MS/MS analysis; format: ADME, organism-based; conditions: read-out: Ct
[47] = in vivo; conditions: cynomolgus monkey, iv, 1 mg/kg
Description: Half life in cynomolgus monkey at 1 mg/kg, iv measured after 24 hrs by HPLC method

[48] = tested on: Hepatitis C virus; experiment: Inhibition of HCV genotype 4a; format: functional, organism-based, Hepacivirus hominis
[49] = Drug concentration in Beagle dog liver at 6 mg/kg, po measured after 24 hrs by LC-MS/MS analysis; format: ADME, organism-based, Canis lupus familiaris; conditions: read-out: Ct
[50] = tested on: Hepatitis C virus; experiment: Inhibition of HCV genotype 3a; format: functional, organism-based, Hepacivirus hominis
[51] = tested on: Hepatitis C virus; experiment: Inhibition of HCV genotype 2a; format: functional, organism-based, Hepacivirus hominis
[52] = in vivo; conditions: Sprague-Dawley, rat, iv, 5 mg/kg
Description: Half life in Sprague-Dawley rat at 5 mg/kg, iv measured after 24 hrs by HPLC method

[53] = target: RNA-directed RNA polymerase (Hepacivirus hominis, UniProt O39930); experiment: Inhibition of Hepatitis C virus NS5B polymerase
[54] = Clearance in Wistar rat at 10 mg/kg, iv measured after 4 hrs; format: ADME, organism-based; conditions: in vivo
[55] = Clearance in Wistar rat at 10 mg/kg, po measured after 4 hrs; format: ADME, organism-based; conditions: in vivo
[56] = tested on: Hepatitis C virus; experiment: Antiviral activity against HCV genotype 1b expressing NS5B S365A mutant variant; format: functional, organism-based, Hepacivirus hominis
[57] = Oral bioavailability in rat at 3 mg/kg; format: ADME, organism-based; conditions: in vivo
[58] = tested on: Hepatitis C virus; experiment: Antiviral activity against HCV genotype 1a; format: functional, organism-based, Hepacivirus hominis
[59] = Aqueous solubility of the compound at pH 2.2 measured after 24 hrs; format: physicochemical

Sequence of RNA-directed RNA polymerase (O39930 whole entry): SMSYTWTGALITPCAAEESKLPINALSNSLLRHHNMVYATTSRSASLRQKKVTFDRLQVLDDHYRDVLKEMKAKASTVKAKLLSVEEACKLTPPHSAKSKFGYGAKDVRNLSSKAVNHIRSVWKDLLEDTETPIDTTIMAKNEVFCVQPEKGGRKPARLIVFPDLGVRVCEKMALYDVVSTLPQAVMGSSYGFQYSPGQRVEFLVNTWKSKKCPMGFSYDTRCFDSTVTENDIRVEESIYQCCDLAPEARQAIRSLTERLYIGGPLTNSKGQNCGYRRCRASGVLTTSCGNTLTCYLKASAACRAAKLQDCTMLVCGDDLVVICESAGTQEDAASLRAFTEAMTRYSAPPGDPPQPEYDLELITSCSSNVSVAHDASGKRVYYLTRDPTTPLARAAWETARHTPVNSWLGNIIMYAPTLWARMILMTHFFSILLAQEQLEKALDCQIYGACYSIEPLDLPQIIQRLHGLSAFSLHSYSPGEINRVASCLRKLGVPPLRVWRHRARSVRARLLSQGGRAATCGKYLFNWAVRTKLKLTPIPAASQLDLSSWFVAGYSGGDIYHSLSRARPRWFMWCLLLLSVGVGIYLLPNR

Compound `O=C(O)c1ccc2c(C3CCCCC3)c3n(c2c1)CC(C(=O)N1CCOCC1)Cc1ccccc1-3` (racemic) has a pEC50 [1] of 8.70 and a pEC50 [2] of 6.70.

For `COc1ccc2c(c1)C=C(C(=O)N1C[C@@H](C)O[C@@H](C)C1)Cn1c-2c(C2CCCCC2)c2ccc(C(=O)NS(=O)(=O)N(C)C)cc21`, the pEC50 [3] was 7.40, the pIC50 [4] was < 5.00 and the pEC50 [1] was 7.40.

With `CN(C)S(=O)(=O)NC(=O)c1ccc2c(C3CCCCC3)c3n(c2c1)CC(C(=O)N1CCOCC1)=Cc1ccccc1-3` the pEC50 [3] was 6.83, the solubility [5] was < 0.001 mg/mL and the pEC50 [1] was 6.92.

With `COc1ccc2c(c1)[C@@H]1C[C@]1(C(=O)N1CC(C)N(C)C(C)C1)Cn1c-2c(C2CCCCC2)c2ccc(C(=O)NS(=O)(=O)N(C)C)cc21` (some centres undefined) the pEC50 [3] was 8.52, the solubility [6] was 0.034 mg/mL (≈ 51.4 µM) and the pEC50 [7] was < 4.30. It also gave a pEC50 [1] of 9.00 and a bioavailability [8] of 17%.

For `C[C@H](NC(=O)OCc1ccccc1)C(=O)Nc1ccc(C2S/C(=N\c3cccc(F)c3)N(Cc3ccco3)C2=O)cc1` (some centres undefined), the CC50 [9] was > 100 µM, the pEC50 [10] was 4.77 and the pEC50 [11] was 4.39. For the same compound, the pEC50 [12] was 4.62, the CC50 at 72 h [13] was > 150 µM and the pEC50 [14] was 4.64. For the same compound, the CC50 [15] was > 100 µM, the CC50 at 72 h [16] was > 50 µM and the CC50 at 72 h [17] was 41 µM. The CC50 at 72 h [18] was 23 µM, the pEC50 [19] was < 4.00 and the pEC50 [20] was 6.24.

Compound `C=C[C@@H]1C[C@]1(NC(=O)[C@@H]1C[C@@H](Oc2ncc(OC)c3ccc(Cl)cc23)CN1C(=O)[C@@H](NC(=O)OC(C)(C)C)C(C)(C)C)C(=O)NS(=O)(=O)C1CC1` has an Activity [21] of 3.09 log10 IU/mL, a concentration at 24 h [22] of 0.44 µM and a pEC50 [23] of 6.64. For the same compound, the AUC at 24 h [24] was 2200 nM·h, the AUC at 24 h [25] was 1000 nM·h and the pEC50 [26] was 8.92. For the same compound, the Activity [27] was 3.57 log10 IU/mL, the half-life at 24 h [28] was 1 h and the pIC50 [29] was 9.52. For the same compound, the AUC at 24 h [30] was 410 nM·h, the pIC50 [31] was 7.11 and the pIC50 [32] was 9.05. For the same compound, the pEC50 [33] was 8.74, the half-life at 24 h [34] was 4.6 h and the bioavailability [35] was 11%. For the same compound, the Activity [36] was 2.84 log10 IU/mL, the bioavailability [37] was 14% and the concentration at 24 h [38] was 0.04 µM. The pIC50 [39] was 8.77, the AUC at 24 h [40] was 540 nM·h and the bioavailability [41] was 28%. It also gave a concentration at 24 h [42] of 1.2 µM, a pEC50 [43] of 5.93 and a concentration at 24 h [44] of 0.006 µM. It also gave a pIC50 [45] of 9.15, a concentration at 24 h [46] of 0.71 µM and a half-life at 24 h [47] of 1.3 h. The pIC50 [48] was 8.80, the concentration at 24 h [49] was 2.5 µM and the pIC50 [50] was 6.49. It also gave a pIC50 [51] of 7.82 and a half-life at 24 h [52] of 4.2 h.

In the case of `Cn1c(-c2ccccc2)c(C2CCCCC2)c2ccc(C(=O)O)cc21`, the pIC50 [53] was 6.92.

Compound `COc1ccc2c(c1)C1CC1(C(=O)N1CC3CCC(C1)N3C)Cn1c-2c(C2CCCCC2)c2ccc(C(=O)NS(=O)(=O)N(C)C)cc21` (racemic) has a pEC50 [3] of 7.41, a CL [54] of 20.6 mg/mL/kg and a CL [55] of 55.4 mg/mL/kg. It also gave a pEC50 [1] of 7.80.

With `O=C1Cn2c(c(C3CCCCC3)c3ccc(C(=O)O)cc32)-c2ccccc2N1` the pEC50 [56] was 6.77, the pEC50 [26] was > 8.00 and the bioavailability [57] was 17%. For the same compound, the pEC50 [58] was > 8.00.

For `COc1ccc2c(c1)[C@@H]1C[C@]1(C(=O)N1[C@@H]3CC[C@H]1CN(C)C3)Cn1c-2c(C2CCCCC2)c2ccc(C(=O)NS(=O)(=O)N(C)C)cc21` [BECLABUVIR], the Activity ([3]; time 24 hrs) was 1.3 log10 IU/mL, the solubility at 24 h [59] was > 1.6 mg/mL and the pEC50 [58] was 6.70.
